Reference: patent publication US8299111B2, “Compounds which modulate the CB2 receptor” (Boehringer Ingelheim International GmbH, priority 2006, dated 2012)

Target: T1, human CB2R (Homo sapiens, UniProt P34972)
T1 construct: host or cells: CHO cells
Test: CB2R mediated modulation of cAMP synthesis
Type: cell-based
Settings: found through the use of the above described assays (binding and cAMP); CHO cells expressing human CB2R, forskolin-stimulated cAMP
Procedure, shortened: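 CHO cells expressing human CB2R were treated for 30 min at 37 °C with compound in buffer containing 1 mM IBMX, 0.25% BSA and 10 uM forskolin. cAMP was measured after lysis. EC50 is the concentration giving 50% inhibition of forskolin-stimulated cAMP, scaled to the level set by 1 uM CP55940, fitted by four-parameter logistic.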

T1 sequence (P34972 whole entry): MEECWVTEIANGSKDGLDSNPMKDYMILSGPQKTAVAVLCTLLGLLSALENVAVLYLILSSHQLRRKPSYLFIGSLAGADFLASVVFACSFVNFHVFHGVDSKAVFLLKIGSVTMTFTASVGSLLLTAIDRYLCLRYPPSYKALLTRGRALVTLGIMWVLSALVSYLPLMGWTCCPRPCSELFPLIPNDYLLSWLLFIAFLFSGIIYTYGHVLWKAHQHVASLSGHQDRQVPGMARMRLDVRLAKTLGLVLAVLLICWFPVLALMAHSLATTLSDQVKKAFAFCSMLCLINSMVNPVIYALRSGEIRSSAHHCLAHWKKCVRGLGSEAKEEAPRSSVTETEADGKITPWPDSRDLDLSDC

Row | Structure (SMILES) | agonistic activity
1 | CC(C)(C)c1cc(NC(=O)C(C)(C)S(=O)(=O)c2ccsc2)no1 [N-(5-tert-Butyl-isoxazol-3-yl)-2-methyl-2-(thiophene-3-sulfonyl)-propionamide] | agonistic activity
2 | CC(C)(C(=O)Nc1ccc(C(F)(F)F)cc1)S(=O)(=O)c1ccc(C(F)(F)F)nc1 [2-methyl-N-[4-(trifluoromethyl)phenyl]-2-{[6-(trifluoromethyl)pyridin-3-yl]sulfonyl}propanamide] | agonistic activity
3 | CC(C)(C)c1cc(NC(=O)C(C)(C)S(=O)(=O)c2cccc3cccnc23)no1 [N-(5-tert-Butyl-isoxazol-3-yl)-2-methyl-2-(quinoline-8-sulfonyl)-propionamide] | agonistic activity
4 | CC(C)(C(=O)Nc1nc(C(F)(F)F)cs1)S(=O)(=O)c1ccc(C(F)(F)F)nc1 [2-methyl-2-{[6-(trifluoromethyl)pyridin-3-yl]sulfonyl}-N-[4-(trifluoromethyl)-1,3-thiazol-2-yl]propanamide] | agonistic activity
5 | Cc1nc(NC(=O)C(C(C)C)S(=O)(=O)c2ccc(C(F)(F)F)cc2)sc1C(C)(C)C (centres unmarked) [N-(5-tert-Butyl-4-methyl-thiazol-2-yl)-3-methyl-2-(4-trifluoromethyl-benzenesulfonyl)-butyramide] | agonistic activity
6 | CC(C)(C)c1cc(NC(=O)C(C)(C)S(=O)(=O)c2ccccc2F)[nH]n1 [N-(5-tert-Butyl-2H-pyrazol-3-yl)-2-(2-fluoro-benzenesulfonyl)-2-methyl-propionamide] | agonistic activity
7 | CC(C)(C)c1csc(NC(=O)C(C)(C)S(=O)(=O)c2ccc(N3CCC3)nc2)n1 [2-(6-Azetidin-1-yl-pyridine-3-sulfonyl)-N-(4-tert-butyl-thiazol-2-yl)-2-methyl-propionamide] | agonistic activity
8 | CC(C)(C)c1csc(NC(=O)C(C)(C)S(=O)(=O)c2ccc(Cl)c(Cl)c2)n1 [N-(4-tert-Butyl-thiazol-2-yl)-2-(3,4-dichloro-benzenesulfonyl)-2-methyl-propionamide] | agonistic activity
9 | CC(C)(C(=O)Nc1cccc(C(F)(F)F)n1)S(=O)(=O)c1cc(F)ccc1F [2-(2,5-Difluoro-benzenesulfonyl)-2-methyl-N-(6-trifluoromethyl-pyridin-2-yl)-propionamide] | agonistic activity
10 | Cc1ccc(S(=O)(=O)C(C)(C)C(=O)Nc2cc(-c3ccccc3)nn2C)cc1 [2-Methyl-N-(2-methyl-5-phenyl-2H-pyrazol-3-yl)-2-(toluene-4-sulfonyl)-propionamide] | agonistic activity
11 | CC(C)(C)c1csc(NC(=O)C(C)(C)S(=O)(=O)c2ccc(Cl)cc2F)n1 [N-(4-tert-Butyl-thiazol-2-yl)-2-(4-chloro-2-fluoro-benzenesulfonyl)-2-methyl-propionamide] | agonistic activity
12 | COc1ccc(NC(=O)C(C)(C)S(=O)(=O)c2ccc(Cl)cc2)cn1 [2-(4-Chloro-benzenesulfonyl)-N-(6-methoxy-pyridin-3-yl)-2-methyl-propionamide] | agonistic activity
13 | CC(C)(C(=O)Nc1ccc2ccccc2n1)S(=O)(=O)c1ccc(Cl)cc1 [2-(4-Chloro-benzenesulfonyl)-2-methyl-N-quinolin-2-yl-propionamide] | agonistic activity
14 | CCc1sc(NC(=O)C(C)(C)S(=O)(=O)c2ccccc2)nc1-c1ccccc1 [2-Benzenesulfonyl-N-(5-ethyl-4-phenyl-thiazol-2-yl)-2-methyl-propionamide] | agonistic activity
15 | CC(C)(C)Cc1cc(NC(=O)C(C)(C)S(=O)(=O)c2ccc(Cl)cc2)on1 | agonistic activity
16 | CC(C)(C)c1cnc(NC(=O)C2(S(=O)(=O)c3ccc(Cl)cc3)CCC2)s1 [1-(4-Chloro-benzenesulfonyl)-cyclobutanecarboxylic acid (5-tert-butyl-thiazol-2-yl)-amide] | agonistic activity

Row | Structure (SMILES) | agonistic activity
17 | CC(C)(C(=O)Nc1cc(C(F)(F)F)ccn1)S(=O)(=O)c1ccc(F)cc1F [2-[(2,4-difluorophenyl)sulfonyl]-2-methyl-N-[4-(trifluoromethyl)pyridin-2-yl]propanamide] | agonistic activity
18 | Cc1nc(NC(=O)C2(S(=O)(=O)c3ccc(Cl)cc3)CCC2)sc1C(C)(C)C [1-(4-Chloro-benzenesulfonyl)-cyclobutanecarboxylic acid (5-tert-butyl-4-methyl-thiazol-2-yl)-amide] | agonistic activity
19 | Cc1cccc(NC(=O)C(C)(C)S(=O)(=O)c2ccc(Cl)cc2)n1 [2-(4-Chloro-benzenesulfonyl)-2-methyl-N-(6-methyl-pyridin-2-yl)-propionamide] | agonistic activity
20 | CC(C)(C)c1csc(NC(=O)C(C)(C)S(=O)(=O)c2ccc3ccccc3c2)n1 [N-(4-tert-Butyl-thiazol-2-yl)-2-methyl-2-(naphthalene-2-sulfonyl)-propionamide] | agonistic activity
21 | Cc1ccc(S(=O)(=O)C(C)(C)C(=O)Nc2cccc(C(F)(F)F)n2)cn1 [2-Methyl-2-(6-methyl-pyridine-3-sulfonyl)-N-(6-trifluoromethyl-pyridin-2-yl)-propionamide] | agonistic activity
22 | Cc1ccc(S(=O)(=O)C(C)(C)C(=O)Nc2cccc(C(F)(F)F)n2)cc1 [2-Methyl-2-(toluene-4-sulfonyl)-N-(6-trifluoromethyl-pyridin-2-yl)-propionamide] | agonistic activity
23 | Cc1ccccc1S(=O)(=O)C(C)(C)C(=O)Nc1nc(C(C)(C)C)cs1 [N-(4-tert-Butyl-thiazol-2-yl)-2-methyl-2-(toluene-2-sulfonyl)-propionamide] | agonistic activity
24 | COc1ccc(S(=O)(=O)C(C)(C)C(=O)Nc2nc(-c3ccc(Cl)cc3)cs2)cc1 [N-[4-(4-Chloro-phenyl)-thiazol-2-yl]-2-(4-methoxy-benzenesulfonyl)-2-methyl-propionamide] | agonistic activity
25 | CC(C)c1cc(NC(=O)C(C)(C)S(=O)(=O)c2ccc(Cl)cc2)on1 [2-(4-Chloro-benzenesulfonyl)-N-(3-isopropyl-isoxazol-5-yl)-2-methyl-propionamide] | agonistic activity
26 | Cc1ccc(S(=O)(=O)C(C)(C)C(=O)Nc2ccc(C(F)(F)F)cn2)c(F)c1 [2-(2-Fluoro-4-methyl-benzenesulfonyl)-2-methyl-N-(5-trifluoromethyl-pyridin-2-yl)-propionamide] | agonistic activity
27 | CC(C)(C)Cc1cc(NC(=O)C(C)(C)S(=O)(=O)c2ccc(F)cc2F)on1 [2-[(2,4-difluorophenyl)sulfonyl]-N-[3-(2,2-dimethylpropyl)isoxazol-5-yl]-2-methylpropanamide] | agonistic activity
28 | Cn1nc(C(C)(C)C)cc1NC(=O)C(C)(C)S(=O)(=O)c1ccc(Cl)cc1F [N-(5-tert-Butyl-2-methyl-2H-pyrazol-3-yl)-2-(4-chloro-2-fluoro-benzenesulfonyl)-2-methyl-propionamide] | agonistic activity
29 | CC(C)(C)c1cc(NC(=O)CS(=O)(=O)c2ccc(C(F)(F)F)cc2)no1 [N-(5-tert-Butyl-isoxazol-3-yl)-2-(4-trifluoromethyl-benzenesulfonyl)-acetamide] | agonistic activity
30 | CC(C)(C(=O)Nc1nsc(-c2ccccc2)n1)S(=O)(=O)c1ccc(Cl)cc1 [2-(4-Chloro-benzenesulfonyl)-2-methyl-N-(5-phenyl-[1,2,4]thiadiazol-3-yl)-propionamide] | agonistic activity
31 | O=C(Nc1ccc(C(F)(F)F)cn1)C1(S(=O)(=O)c2ccc(C(F)(F)F)cc2)CC1 [1-(4-Trifluoromethyl-benzenesulfonyl)-cyclopropanecarboxylic acid (5-trifluoromethyl-pyridin-2-yl)-amide] | agonistic activity
32 | CC(C)(C(=O)Nc1nc(-c2ccccc2)c(-c2ccccc2)s1)S(=O)(=O)c1ccc(Cl)cc1 [2-(4-Chloro-benzenesulfonyl)-N-(4,5-diphenyl-thiazol-2-yl)-2-methyl-propionamide] | agonistic activity
